Measurements from PMC5473888 (Scientific Reports, 2017).

Columns and labels:
[1] = system: DA uptake in rat synaptosomes; design: method as in PMID 25788711; details: read-out: Potency for inhibition of DA uptake; cited from earlier work
[2] = biological target: T1, WT hDAT (Homo sapiens, UniProt Q01959); assay: Tat-induced inhibition of specific [3H]WIN35,428 binding in CHO cells transfected with WT hDAT; design: synthetic cDNA encoding hDAT subcloned into pcDNA3.1 +; expressed in transfected cells; host or cells: CHO cells (ATCC CRL-61), transient, Lipofectamine 2000, pcDNA3.1+
Experimental: CHO cells transfected with WT hDAT were incubated with [^3H]WIN 35,428 (final concentration, 5 nM) with or without recombinant Tat1–86 (rTat1–86) (40 nM, final concentration) on ice for 2 h. […] Data for rTat1–86 and SRI-30827 + rTat1–86 are expressed as the percentage of their respective controls in the absence of rTat1–86 (15675 ± 2982 DPM) and SRI-30827 (14041 ± 3212 DPM) n = 5. *p < 0.05 compared with control value.
PC12 cells were maintained in the incubator (37 °C, 5% CO2) with DMEM medium supplemented with horse serum (15%) and bovine calf serum (2.5%), glutamine (2 mM), and penicillin-streptomycin (100 U/ml). Chinese hamster ovary cells (CHO cells, ATCC, CRL-61) were maintained in F12 medium with 10% fetal bovine serum and antibiotics (100 U/mL penicillin and 100 µg/mL streptomycin). For hDATs transfection, cells were seeded into poly-D-lysine-coated 24 well plates at a density of 1 × 10^5 cells/well. After 24 h, cells were transfected with WT or mutant DAT plasmids using Lipofectamine 2000 (Life Tech, Carlsbad, CA) based on the manufacturer’s instruction. Cells were used for the experiments after 24 h of transfection.

[3] = biological target: T2, Y470F-hDAT (Homo sapiens, UniProt Q01959, Y470F); assay: Competitive inhibition [3H]DA uptake assay in transfected PC12 cells; type: cell-based; details: SRI-20041 12.8 µM
T2 construct: synthetic cDNA encoding hDAT subcloned into pcDNA3.1 +; expressed in transfected cells; host or cells: PC12 cells (ATCC CRL-1721), transient, Lipofectamine 2000, pcDNA3.1+
Text: (§1) Results are presented as mean ± SEM, and n represents the number of independent experiments for each experiment group.

[4] = biological target: T1, WT hDAT; assay: as above; type: cell-based; design: synthetic cDNA encoding hDAT subcloned into pcDNA3.1 +; expressed in transfected cells; host or cells: PC12 cells (ATCC CRL-1721), transient, Lipofectamine 2000, pcDNA3.1+; details: SRI-20041 12.8 µM
Text: as §1

T1 sequence (Q01959 whole entry): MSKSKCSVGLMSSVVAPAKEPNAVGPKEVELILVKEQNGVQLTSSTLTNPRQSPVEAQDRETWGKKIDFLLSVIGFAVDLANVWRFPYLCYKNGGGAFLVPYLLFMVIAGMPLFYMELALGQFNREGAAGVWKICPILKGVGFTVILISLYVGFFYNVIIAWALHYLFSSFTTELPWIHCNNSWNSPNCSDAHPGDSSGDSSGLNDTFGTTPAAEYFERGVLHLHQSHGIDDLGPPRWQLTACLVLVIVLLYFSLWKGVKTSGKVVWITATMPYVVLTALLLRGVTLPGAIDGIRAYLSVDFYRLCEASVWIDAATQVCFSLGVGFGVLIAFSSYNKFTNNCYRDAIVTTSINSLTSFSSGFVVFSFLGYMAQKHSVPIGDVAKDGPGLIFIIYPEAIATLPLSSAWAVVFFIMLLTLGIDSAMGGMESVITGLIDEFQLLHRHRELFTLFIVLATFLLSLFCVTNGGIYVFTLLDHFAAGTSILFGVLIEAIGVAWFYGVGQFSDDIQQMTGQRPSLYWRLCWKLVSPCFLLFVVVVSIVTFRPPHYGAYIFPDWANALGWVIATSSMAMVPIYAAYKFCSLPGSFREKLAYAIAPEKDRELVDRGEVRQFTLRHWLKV
T2 sequence (Q01959 whole entry Y470F): as the sequence (Q01959 whole entry) above, with Y470F counted along it

| Compound | IC50 [1] [nM] | Effect on the specific [3H]WIN35,428 binding ([2]; SRI-30827 50 nM alone) | Specific [3H]WIN35,428 binding ([2]; SRI-30827 50 nM in the absence of rTat1–86, CHO cells, n = 5) [DPM] | Increase of cocaine IC50 of [3H]DA uptake [3] | Increase of cocaine IC50 of [3H]DA uptake [4] |
| --- | --- | --- | --- | --- | --- |
| Cc1cc2nccn2cc1-c1nc(NCC(c2ccccc2)c2ccccc2)c2ccccc2n1 [SRI-30827] | 0.5 | did not alter | 14041 ± 3212 |  |  |
| c1ccc(-c2nc(NCCC(c3ccccc3)c3ccccc3)c3ccccc3n2)cc1 [SRI-20041] |  |  |  | ~ 40% | ~ 35% |
